Measured values from the NIST ThermoML archive (doi:10.1021/je300692s).
± gives the expanded uncertainty stated by the source.

Experiment: activity coefficient (dimensionless); of the first substance listed, at infinite dilution; xn = mol fraction of the nth substance listed
Conditions: 101 kPa, Liquid, Chromatography, x1 = 0

Row | SMILES | activity coefficient (333 K) | activity coefficient (343.1 K) | activity coefficient (323 K) | activity coefficient (322.9 K) | activity coefficient (322.6 K) | activity coefficient (332.5 K) | activity coefficient (342.8 K)
1 | CC(C)O [propan-2-ol] + CCCCCC[N+]1(C)CCCC1.O=S(=O)([N-]S(=O)(=O)C(F)(F)F)C(F)(F)F | 1.53 ± 0.16 | 1.4 ± 0.14 |  |  |  |  | 
2 | ClCCl [dichloromethane] + CCCCCCCC[N+]1(C)CCCC1.O=S(=O)([N-]S(=O)(=O)C(F)(F)F)C(F)(F)F | 0.27 ± 0.04 | 0.28 ± 0.04 | 0.26 ± 0.04 |  |  |  | 
3 | CCCC(C)=O [pentan-2-one] + CCCCCC[N+]1(C)CCCC1.O=S(=O)([N-]S(=O)(=O)C(F)(F)F)C(F)(F)F | 0.65 ± 0.07 | 0.66 ± 0.07 |  | 0.59 ± 0.06 |  |  | 
4 | CC(C)OC(C)C [diisopropyl ether] + CCCCCCCCCC[N+]1(C)CCCC1.O=S(=O)([N-]S(=O)(=O)C(F)(F)F)C(F)(F)F |  |  |  |  | 2.29 ± 0.24 | 2.28 ± 0.24 | 2.26 ± 0.24
5 | C1CCCCCC1 [cycloheptane] + CCCCCCCCCC[N+]1(C)CCCC1.O=S(=O)([N-]S(=O)(=O)C(F)(F)F)C(F)(F)F |  |  |  |  | 7 ± 0.74 | 9.72 ± 1 | 13.3 ± 1.4
6 | CCCCCCCCC [nonane] + CCCCCC[N+]1(C)CCCC1.O=S(=O)([N-]S(=O)(=O)C(F)(F)F)C(F)(F)F | 18.2 ± 1.9 | 18.5 ± 1.9 |  | 21.1 ± 2.2 |  |  | 
7 | Cc1ccc(C)cc1 [1,4-dimethylbenzene] + CCCCCCCC[N+]1(C)CCCC1.O=S(=O)([N-]S(=O)(=O)C(F)(F)F)C(F)(F)F | 0.99 ± 0.1 | 1.05 ± 0.11 | 1.01 ± 0.1 |  |  |  | 
8 | CCCO [propan-1-ol] + CCCCCC[N+]1(C)CCCC1.O=S(=O)([N-]S(=O)(=O)C(F)(F)F)C(F)(F)F | 1.64 ± 0.17 | 1.49 ± 0.15 |  | 1.72 ± 0.18 |  |  | 
9 | CCC[N+](=O)[O-] [1-nitropropane] + CCCCCC[N+]1(C)CCCC1.O=S(=O)([N-]S(=O)(=O)C(F)(F)F)C(F)(F)F | 0.66 ± 0.07 | 0.65 ± 0.07 |  | 0.66 ± 0.07 |  |  | 
10 | C1COCCO1 [1,4-dioxane] + CCCCCC[N+]1(C)CCCC1.O=S(=O)([N-]S(=O)(=O)C(F)(F)F)C(F)(F)F | 0.42 ± 0.05 | 0.44 ± 0.05 |  | 0.58 ± 0.06 |  |  | 
11 | C#CCCCC [1-hexyne] + CCCCCC[N+]1(C)CCCC1.O=S(=O)([N-]S(=O)(=O)C(F)(F)F)C(F)(F)F | 2.1 ± 0.22 | 2.09 ± 0.22 |  | 2.1 ± 0.22 |  |  | 
12 | C1CCCCC1 [cyclohexane] + CCCCCCCCCC[N+]1(C)CCCC1.O=S(=O)([N-]S(=O)(=O)C(F)(F)F)C(F)(F)F |  |  |  |  | 2.81 ± 0.3 | 2.71 ± 0.28 | 2.62 ± 0.28
13 | C#CCCCC [1-hexyne] + CCCCCCCCCC[N+]1(C)CCCC1.O=S(=O)([N-]S(=O)(=O)C(F)(F)F)C(F)(F)F |  |  |  |  | 1.5 ± 0.16 | 1.48 ± 0.15 | 1.47 ± 0.15
14 | ClC(Cl)(Cl)Cl [tetrachloromethane] + CCCCCCCC[N+]1(C)CCCC1.O=S(=O)([N-]S(=O)(=O)C(F)(F)F)C(F)(F)F | 1.3 ± 0.13 | 1.15 ± 0.12 | 1.39 ± 0.14 |  |  |  | 
15 | CCC(C)CC [3-methylpentane] + CCCCCCCCCC[N+]1(C)CCCC1.O=S(=O)([N-]S(=O)(=O)C(F)(F)F)C(F)(F)F |  |  |  |  | 3.65 ± 0.38 | 3.36 ± 0.35 | 3.4 ± 0.36
16 | Cc1ccc(C)cc1 [1,4-dimethylbenzene] + CCCCCC[N+]1(C)CCCC1.O=S(=O)([N-]S(=O)(=O)C(F)(F)F)C(F)(F)F | 1.4 ± 0.14 | 1.42 ± 0.15 |  | 1.35 ± 0.14 |  |  | 

Row | SMILES | activity coefficient (333 K) | activity coefficient (343.1 K) | activity coefficient (323 K) | activity coefficient (322.9 K) | activity coefficient (322.6 K) | activity coefficient (332.5 K) | activity coefficient (342.8 K)
17 | C[N+](=O)[O-] [nitromethane] + CCCCCC[N+]1(C)CCCC1.O=S(=O)([N-]S(=O)(=O)C(F)(F)F)C(F)(F)F | 0.57 ± 0.06 | 0.56 ± 0.06 |  | 0.57 ± 0.06 |  |  | 
18 | CCCCO [butan-1-ol] + CCCCCCCCCC[N+]1(C)CCCC1.O=S(=O)([N-]S(=O)(=O)C(F)(F)F)C(F)(F)F |  |  |  |  | 2.2 ± 0.23 | 1.85 ± 0.19 | 1.64 ± 0.17
19 | CO [methanol] + CCCCCCCC[N+]1(C)CCCC1.O=S(=O)([N-]S(=O)(=O)C(F)(F)F)C(F)(F)F | 1.09 ± 0.11 | 0.71 ± 0.07 | 0.97 ± 0.1 |  |  |  | 
20 | CC#N [acetonitrile] + CCCCCC[N+]1(C)CCCC1.O=S(=O)([N-]S(=O)(=O)C(F)(F)F)C(F)(F)F | 0.46 ± 0.05 | 0.48 ± 0.05 |  | 0.46 ± 0.05 |  |  | 
21 | CCCCCCCCCCC [undecane] + CCCCCCCC[N+]1(C)CCCC1.O=S(=O)([N-]S(=O)(=O)C(F)(F)F)C(F)(F)F | 15.6 ± 1.6 | 14.6 ± 1.5 | 16.8 ± 1.8 |  |  |  | 
22 | Cc1ccccc1C [1,2-dimethylbenzene] + CCCCCC[N+]1(C)CCCC1.O=S(=O)([N-]S(=O)(=O)C(F)(F)F)C(F)(F)F | 1.28 ± 0.13 | 1.31 ± 0.13 |  | 1.17 ± 0.12 |  |  | 
23 | c1ccsc1 [thiophene] + CCCCCCCCCC[N+]1(C)CCCC1.O=S(=O)([N-]S(=O)(=O)C(F)(F)F)C(F)(F)F |  |  |  |  | 0.6 ± 0.06 | 0.6 ± 0.06 | 0.61 ± 0.07
24 | C1CCCCC1 [cyclohexane] + CCCCCC[N+]1(C)CCCC1.O=S(=O)([N-]S(=O)(=O)C(F)(F)F)C(F)(F)F | 4.64 ± 0.49 | 4.67 ± 0.49 |  | 5.16 ± 0.54 |  |  | 
25 | CCOCC [diethyl ether] + CCCCCC[N+]1(C)CCCC1.O=S(=O)([N-]S(=O)(=O)C(F)(F)F)C(F)(F)F | 1.76 ± 0.18 | 1.76 ± 0.18 |  | 1.56 ± 0.16 |  |  | 
26 | c1ccccc1 [benzene] + CCCCCCCC[N+]1(C)CCCC1.O=S(=O)([N-]S(=O)(=O)C(F)(F)F)C(F)(F)F | 0.62 ± 0.07 | 0.61 ± 0.07 | 0.6 ± 0.06 |  |  |  | 
27 | ClC(Cl)Cl [trichloromethane] + CCCCCCCCCC[N+]1(C)CCCC1.O=S(=O)([N-]S(=O)(=O)C(F)(F)F)C(F)(F)F |  |  |  |  | 0.39 ± 0.05 | 0.39 ± 0.05 | 0.41 ± 0.05
28 | CCC(=O)CC [pentan-3-one] + CCCCCCCCCC[N+]1(C)CCCC1.O=S(=O)([N-]S(=O)(=O)C(F)(F)F)C(F)(F)F |  |  |  |  | 0.47 ± 0.05 | 0.48 ± 0.05 | 0.5 ± 0.06
29 | CC(C)CO [2-methyl-1-propanol] + CCCCCC[N+]1(C)CCCC1.O=S(=O)([N-]S(=O)(=O)C(F)(F)F)C(F)(F)F | 2.67 ± 0.16 | 1.65 ± 0.1 |  | 1.87 ± 0.11 |  |  | 
30 | CC(C)O [propan-2-ol] + CCCCCCCC[N+]1(C)CCCC1.O=S(=O)([N-]S(=O)(=O)C(F)(F)F)C(F)(F)F | 1.27 ± 0.13 | 1.06 ± 0.11 | 1.4 ± 0.14 |  |  |  | 
31 | CCC(=O)CC [pentan-3-one] + CCCCCC[N+]1(C)CCCC1.O=S(=O)([N-]S(=O)(=O)C(F)(F)F)C(F)(F)F | 0.6 ± 0.06 | 0.62 ± 0.07 |  | 0.47 ± 0.05 |  |  | 
